Assay results published in ChEMBL document CHEMBL1138536, “A Ser678Pro substitution in Fks1p confers resistance to echinocandin drugs in Aspergillus fumigatus” (Antimicrob Agents Chemother, 2007).
Converted amounts (≈) assume the structure as drawn. Numbered stars: 1 amine (or outer) side, 2 acyl side, 3 side chain; on linkers, the order of the positions; unused ones are H or OH. Bridge positions count the residues as written; N and C are the ends. Square brackets hold non-standard residues; d marks the D form. Peptide text beside a SMILES is read from it. * marks the point of attachment. hTyr(3S-OH,4S-OH,3'-OSO3H) = N[C@H](C(=O)O)[C@H](O)[C@@H](O)c1ccc(O)c(OS(=O)(=O)O)c1; pTerphenylCO(4''-OnC5H11) = CCCCCOc1ccc(-c2ccc(-c3ccc(C(=O)*)cc3)cc2)cc1; Orn(4R-OH,5R-OH) = O=C([C@H](C[C@@H](O)[C@@H](O)N[*:3])N[*:1])[*:2]; hTyr(3S-OH,4S-OH) = N[C@H](C(=O)O)[C@H](O)[C@@H](O)c1ccc(O)cc1; Pro(3S-OH,4S-Me) = C[C@H]1CN[C@H](C(=O)O)[C@H]1O; X1 = CCCCCOc1ccc(-c2cc(-c3ccc(C(=O)*)cc3)no2)cc1; Gln(3R-OH) = NC(=O)C[C@@H](O)[C@H](N)C(=O)O; Hyp = O=C(O)[C@@H]1C[C@@H](O)CN1

What was measured:
[1] = Inhibition of wild-type 1,3-beta-D-glucan synthase KU80delta from Aspergillus fumigatus assessed as incorporation of [3H]glucose
Aspergillus fumigatus [2] = assay: Antifungal activity against Aspergillus fumigatus expressing fks1 gene EMFR-S678P/WT mutant after 24 to 48 hrs by broth dilution susceptibility test; assay type: functional; conditions: read-out: MEC
Aspergillus fumigatus [3] = assay: Antifungal activity against Aspergillus fumigatus expressing fks1 gene EMFR-S678P mutant after 24 to 48 hrs by broth dilution susceptibility test; assay type: functional; conditions: read-out: MEC
[4] = Inhibition of 1,3-beta-D-glucan synthase EMFR-S678P/WT mutant from Aspergillus fumigatus assessed as incorporation of [3H]glucose
Aspergillus fumigatus [5] = assay: Ratio of IC50 for Aspergillus fumigatus 1,3-beta-D-glucan synthase EMFR-S678P mutant to IC50 for Aspergillus fumigatus wild-type 1,3-beta-D-glucan synthase KU80delta
Aspergillus fumigatus [6] = assay: Antifungal activity against Aspergillus fumigatus expressing wild-type fks1 gene KU80delta after 24 to 48 hrs by broth dilution susceptibility test; assay type: functional; conditions: read-out: MEC
Fksp = Fksp (Neosartorya fumigata (Aspergillus fumigatus), UniProt P87204, S678P); assay: Inhibition of 1,3-beta-D-glucan synthase EMFR-S678P mutant from Aspergillus fumigatus assessed as incorporation of [3H]glucose
Sequence of Fksp (P87204 entry or part of it S678P): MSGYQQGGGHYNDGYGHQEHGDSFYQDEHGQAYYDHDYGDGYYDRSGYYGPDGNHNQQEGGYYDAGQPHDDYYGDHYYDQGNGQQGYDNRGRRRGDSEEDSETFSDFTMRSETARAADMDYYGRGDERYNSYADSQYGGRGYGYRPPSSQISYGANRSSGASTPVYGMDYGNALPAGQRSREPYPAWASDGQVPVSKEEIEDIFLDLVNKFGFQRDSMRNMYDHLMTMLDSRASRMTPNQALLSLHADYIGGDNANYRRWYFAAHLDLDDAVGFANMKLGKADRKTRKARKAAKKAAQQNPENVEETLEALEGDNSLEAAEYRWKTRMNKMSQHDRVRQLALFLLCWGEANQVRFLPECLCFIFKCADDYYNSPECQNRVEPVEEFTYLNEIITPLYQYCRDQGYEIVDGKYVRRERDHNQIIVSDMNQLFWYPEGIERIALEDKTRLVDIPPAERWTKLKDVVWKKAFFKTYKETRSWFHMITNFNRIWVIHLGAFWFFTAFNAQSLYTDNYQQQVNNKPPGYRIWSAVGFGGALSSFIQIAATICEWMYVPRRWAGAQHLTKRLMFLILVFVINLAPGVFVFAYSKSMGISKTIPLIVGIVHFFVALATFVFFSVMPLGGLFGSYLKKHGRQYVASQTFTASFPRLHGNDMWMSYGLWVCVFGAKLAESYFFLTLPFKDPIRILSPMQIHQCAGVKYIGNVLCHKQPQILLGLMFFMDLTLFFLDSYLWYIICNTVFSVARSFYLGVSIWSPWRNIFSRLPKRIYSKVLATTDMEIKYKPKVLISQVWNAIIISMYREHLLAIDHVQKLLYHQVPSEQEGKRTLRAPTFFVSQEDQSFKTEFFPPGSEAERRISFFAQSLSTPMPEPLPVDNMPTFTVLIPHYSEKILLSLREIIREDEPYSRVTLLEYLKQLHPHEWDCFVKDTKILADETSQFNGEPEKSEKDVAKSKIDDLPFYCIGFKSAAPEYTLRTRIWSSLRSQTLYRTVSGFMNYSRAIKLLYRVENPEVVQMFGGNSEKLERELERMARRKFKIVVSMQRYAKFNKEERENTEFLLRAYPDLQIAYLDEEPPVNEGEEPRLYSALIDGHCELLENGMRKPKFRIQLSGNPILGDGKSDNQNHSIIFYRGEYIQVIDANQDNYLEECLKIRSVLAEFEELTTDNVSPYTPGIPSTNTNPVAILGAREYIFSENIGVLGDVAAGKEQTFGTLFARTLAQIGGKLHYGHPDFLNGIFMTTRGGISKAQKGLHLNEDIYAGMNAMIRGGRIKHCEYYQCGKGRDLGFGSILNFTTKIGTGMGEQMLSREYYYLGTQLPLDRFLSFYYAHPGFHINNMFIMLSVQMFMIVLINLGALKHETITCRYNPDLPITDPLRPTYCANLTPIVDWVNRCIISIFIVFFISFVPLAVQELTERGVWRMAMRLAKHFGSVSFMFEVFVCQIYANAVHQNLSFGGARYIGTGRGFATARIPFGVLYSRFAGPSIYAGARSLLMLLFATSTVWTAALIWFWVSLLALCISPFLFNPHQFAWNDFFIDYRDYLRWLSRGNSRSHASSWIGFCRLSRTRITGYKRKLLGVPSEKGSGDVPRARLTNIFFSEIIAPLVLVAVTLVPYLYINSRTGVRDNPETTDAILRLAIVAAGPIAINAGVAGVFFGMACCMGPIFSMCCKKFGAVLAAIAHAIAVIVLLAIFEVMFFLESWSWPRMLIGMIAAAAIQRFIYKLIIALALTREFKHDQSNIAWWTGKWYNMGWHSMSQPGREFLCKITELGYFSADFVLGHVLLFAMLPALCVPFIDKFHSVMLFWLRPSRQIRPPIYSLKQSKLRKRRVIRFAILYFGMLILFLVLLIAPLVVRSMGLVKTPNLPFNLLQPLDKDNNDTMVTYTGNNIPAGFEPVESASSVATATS

Compound	IC50 [1]	minimal effective concentration (Aspergillus fumigatus [2])	minimal effective concentration (Aspergillus fumigatus [3])	IC50 [4]	Ratio IC50 (Aspergillus fumigatus [5])	minimal effective concentration (Aspergillus fumigatus [6])	IC50 (Fksp)
CCCCCOc1ccc(-c2ccc(-c3ccc(C(=O)N[C@H]4C[C@@H](O)[C@@H](O)NC(=O)[C@@H]5[C@@H](O)[C@@H](C)CN5C(=O)[C@H]([C@@H](C)O)NC(=O)[C@H]([C@H](O)[C@@H](O)c5ccc(O)cc5)NC(=O)[C@@H]5C[C@@H](O)CN5C(=O)[C@H]([C@@H](C)O)NC4=O)cc3)cc2)cc1 [ANIDULAFUNGIN] ({pTerphenylCO(4''-OnC5H11)}-[Orn(4R-OH,5R-OH)]T[Hyp][hTyr(3S-OH,4S-OH)]T[Pro(3S-OH,4S-Me)]; lactam 1-C)	0.24 ng/mL (≈ 0.21 nM)	8 µg/mL	16 µg/mL	0.37 ng/mL (≈ 0.324 nM)	122	0.015 µg/mL	25.6 nM
CC[C@H](C)C[C@H](C)CCCCCCCCC(=O)N[C@H]1C[C@@H](O)[C@@H](NCCN)NC(=O)[C@@H]2[C@@H](O)CCN2C(=O)[C@H]([C@H](O)CCN)NC(=O)[C@H]([C@H](O)[C@@H](O)c2ccc(O)cc2)NC(=O)[C@@H]2C[C@@H](O)CN2C(=O)[C@H]([C@@H](C)O)NC1=O [CASPOFUNGIN]	0.91 ng/mL (≈ 0.832 nM)	> 16 µg/mL	> 16 µg/mL	0.12 ng/mL (≈ 0.11 nM)	121	0.25 µg/mL	100 nM
CCCCCOc1ccc(-c2cc(-c3ccc(C(=O)N[C@H]4C[C@@H](O)[C@@H](O)NC(=O)[C@@H]5[C@@H](O)[C@@H](C)CN5C(=O)[C@H]([C@H](O)CC(N)=O)NC(=O)[C@H]([C@H](O)[C@@H](O)c5ccc(O)c(OS(=O)(=O)O)c5)NC(=O)[C@@H]5C[C@@H](O)CN5C(=O)[C@H]([C@@H](C)O)NC4=O)cc3)no2)cc1 [MICAFUNGIN] (X1-[Orn(4R-OH,5R-OH)]T[Hyp][hTyr(3S-OH,4S-OH,3'-OSO3H)][Gln(3R-OH)][Pro(3S-OH,4S-Me)]; lactam 1-C)	0.63 ng/mL (≈ 0.496 nM)	8 µg/mL	> 16 µg/mL	0.5 ng/mL (≈ 0.394 nM)	20	0.015 µg/mL	9.93 nM
